# Results as given in patent publication US8653041B2, “Antibacterial aminoglycoside analogs” (Achaogen, Inc., priority 2010, dated 2014).
# Read-outs that look alike come from different tables or passages of the source.
# How the values were obtained:
# Pseudomonas aeruginosa = assay: MIC, CLSI broth microdilution, Pseudomonas aeruginosa panel; format: cell-based; conditions: Pseudomonas aeruginosa, read-out: MIC
# Procedure: (§1) Minimum inhibitory concentrations (MIC) were determined by reference Clinical and Laboratory Standards Institute (CLSI) broth microdilution methods per M7-A7 [2006]. Quality control ranges utilizing E. coli ATCC 25922, P. aeruginosa ATCC 27853 and S. aureus ATCC 29213, and interpretive criteria for comparator agents were as published in CLSI M100-S17 [2007]. Briefly, serial two-fold dilutions of the test compounds were prepared at 2× concentration in Mueller Hinton Broth. The compound dilutions were mixed in 96-well assay plates in a 1:1 ratio with bacterial inoculum. The inoculum was prepared by suspension of a colony from an agar plate that was prepared the previous day. Bacteria were suspended in sterile saline and added to each assay plate to obtain a final concentration of 5×10^5 CFU/mL. The plates were incubated at 35 C for 20 hours in ambient air.
# The MIC panel presented in Table 1 contains 27 isolates of Pseudomonas aeruginosa: strains 1-22 are clinical isolates from around the world collected between 2004-2007 which contain representative resistance mechanisms commonly found in Pseudomonas, such as the AAC(6′)-I, AAC(6′)-II, APH(3′)-IIb, ANT(2″)-I, and perm/efflux; strains 23-27 are susceptible.
# Acinetobacter baumannii = assay: MIC, CLSI broth microdilution, Acinetobacter baumannii panel; format: cell-based; conditions: Acinetobacter baumannii, read-out: MIC
# Procedure: as §1
# The MIC panel presented in Table 2 contains 29 isolates of Acinetobacter baumannii: strains 1-24 are clinical isolates from around the world collected between 2004-2007 which contain representative resistance mechanisms commonly found in Acinetobacter baumannii, such as AAC(3)-I and II, AAC(6′)-I, ANT(2″)-I, APH(3′)-VI, and perm/efflux; strains 25-29 are susceptible.
smiles,measurement,setting,value
NCC[C@H](O)C(=O)N[C@@H]1C[C@H](N)[C@@H](O[C@H]2O[C@H](CNCCO)[C@@H](O)C[C@H]2N)[C@H](O[C@@H]2O[C@H](CO)[C@@H](O[C@H]3O[C@@H](CN)[C@@H](O)[C@H](O)[C@H]3N)[C@H]2O)[C@H]1O [Compound 18],MIC,Pseudomonas aeruginosa; P. aeruginosa clinical strain 1 (resistant clinical isolate),≤ 1 µg/mL
same,MIC,Pseudomonas aeruginosa; P. aeruginosa clinical strain 2 (resistant clinical isolate),≤ 1 µg/mL
same,MIC,Pseudomonas aeruginosa; P. aeruginosa clinical strain 3 (resistant clinical isolate),1 to 8 µg/mL
same,MIC,Pseudomonas aeruginosa; P. aeruginosa clinical strain 4 (resistant clinical isolate),1 to 8 µg/mL
same,MIC,Pseudomonas aeruginosa; P. aeruginosa clinical strain 5 (resistant clinical isolate),1 to 8 µg/mL
same,MIC,Pseudomonas aeruginosa; P. aeruginosa clinical strain 6 (resistant clinical isolate),1 to 8 µg/mL
same,MIC,Pseudomonas aeruginosa; P. aeruginosa clinical strain 7 (resistant clinical isolate),≤ 1 µg/mL
same,MIC,Pseudomonas aeruginosa; P. aeruginosa clinical strain 8 (resistant clinical isolate),8 to 16 µg/mL
same,MIC,Pseudomonas aeruginosa; P. aeruginosa clinical strain 9 (resistant clinical isolate),1 to 8 µg/mL
same,MIC,Pseudomonas aeruginosa; P. aeruginosa clinical strain 10 (resistant clinical isolate),8 to 16 µg/mL
same,MIC,Pseudomonas aeruginosa; P. aeruginosa clinical strain 11 (resistant clinical isolate),≤ 1 µg/mL
same,MIC,Pseudomonas aeruginosa; P. aeruginosa clinical strain 12 (resistant clinical isolate),1 to 8 µg/mL
same,MIC,Pseudomonas aeruginosa; P. aeruginosa clinical strain 13 (resistant clinical isolate),16 to 32 µg/mL
same,MIC,Pseudomonas aeruginosa; P. aeruginosa clinical strain 14 (resistant clinical isolate),1 to 8 µg/mL
same,MIC,Pseudomonas aeruginosa; P. aeruginosa clinical strain 15 (resistant clinical isolate),1 to 8 µg/mL
same,MIC,Pseudomonas aeruginosa; P. aeruginosa clinical strain 16 (resistant clinical isolate),1 to 8 µg/mL
same,MIC,Pseudomonas aeruginosa; P. aeruginosa clinical strain 17 (resistant clinical isolate),1 to 8 µg/mL
same,MIC,Pseudomonas aeruginosa; P. aeruginosa clinical strain 18 (resistant clinical isolate),1 to 8 µg/mL
same,MIC,Pseudomonas aeruginosa; P. aeruginosa clinical strain 19 (resistant clinical isolate),16 to 32 µg/mL
same,MIC,Pseudomonas aeruginosa; P. aeruginosa clinical strain 20 (resistant clinical isolate),16 to 32 µg/mL
same,MIC,Pseudomonas aeruginosa; P. aeruginosa clinical strain 21 (resistant clinical isolate),8 to 16 µg/mL
same,MIC,Pseudomonas aeruginosa; P. aeruginosa clinical strain 22 (resistant clinical isolate),1 to 8 µg/mL
same,MIC,Pseudomonas aeruginosa; P. aeruginosa strain 23 (susceptible),≤ 1 µg/mL
same,MIC,Pseudomonas aeruginosa; P. aeruginosa strain 24 (susceptible),≤ 1 µg/mL
same,MIC,Pseudomonas aeruginosa; P. aeruginosa strain 25 (susceptible),≤ 1 µg/mL
same,MIC,Pseudomonas aeruginosa; P. aeruginosa strain 26 (susceptible),≤ 1 µg/mL
same,MIC,Pseudomonas aeruginosa; P. aeruginosa strain 27 (susceptible),≤ 1 µg/mL
same,MIC,Acinetobacter baumannii; A. baumannii clinical strain 1 (resistant clinical isolate),1 to 8 µg/mL
same,MIC,Acinetobacter baumannii; A. baumannii clinical strain 2 (resistant clinical isolate),8 to 16 µg/mL
same,MIC,Acinetobacter baumannii; A. baumannii clinical strain 3 (resistant clinical isolate),1 to 8 µg/mL
same,MIC,Acinetobacter baumannii; A. baumannii clinical strain 4 (resistant clinical isolate),16 to 32 µg/mL
same,MIC,Acinetobacter baumannii; A. baumannii clinical strain 5 (resistant clinical isolate),1 to 8 µg/mL
same,MIC,Acinetobacter baumannii; A. baumannii clinical strain 6 (resistant clinical isolate),1 to 8 µg/mL
same,MIC,Acinetobacter baumannii; A. baumannii clinical strain 7 (resistant clinical isolate),≤ 1 µg/mL
same,MIC,Acinetobacter baumannii; A. baumannii clinical strain 8 (resistant clinical isolate),1 to 8 µg/mL
same,MIC,Acinetobacter baumannii; A. baumannii clinical strain 9 (resistant clinical isolate),≤ 1 µg/mL
same,MIC,Acinetobacter baumannii; A. baumannii clinical strain 10 (resistant clinical isolate),1 to 8 µg/mL
same,MIC,Acinetobacter baumannii; A. baumannii clinical strain 11 (resistant clinical isolate),≤ 1 µg/mL
same,MIC,Acinetobacter baumannii; A. baumannii clinical strain 12 (resistant clinical isolate),≤ 1 µg/mL
same,MIC,Acinetobacter baumannii; A. baumannii clinical strain 13 (resistant clinical isolate),≤ 1 µg/mL
same,MIC,Acinetobacter baumannii; A. baumannii clinical strain 14 (resistant clinical isolate),1 to 8 µg/mL
same,MIC,Acinetobacter baumannii; A. baumannii clinical strain 15 (resistant clinical isolate),≤ 1 µg/mL
same,MIC,Acinetobacter baumannii; A. baumannii clinical strain 16 (resistant clinical isolate),1 to 8 µg/mL
same,MIC,Acinetobacter baumannii; A. baumannii clinical strain 17 (resistant clinical isolate),1 to 8 µg/mL
same,MIC,Acinetobacter baumannii; A. baumannii clinical strain 18 (resistant clinical isolate),8 to 16 µg/mL
same,MIC,Acinetobacter baumannii; A. baumannii clinical strain 19 (resistant clinical isolate),1 to 8 µg/mL
same,MIC,Acinetobacter baumannii; A. baumannii clinical strain 20 (resistant clinical isolate),8 to 16 µg/mL
same,MIC,Acinetobacter baumannii; A. baumannii clinical strain 21 (resistant clinical isolate),≤ 1 µg/mL
same,MIC,Acinetobacter baumannii; A. baumannii clinical strain 22 (resistant clinical isolate),16 to 32 µg/mL
same,MIC,Acinetobacter baumannii; A. baumannii clinical strain 23 (resistant clinical isolate),≤ 1 µg/mL
same,MIC,Acinetobacter baumannii; A. baumannii clinical strain 24 (resistant clinical isolate),16 to 32 µg/mL
same,MIC,Acinetobacter baumannii; A. baumannii strain 25 (susceptible),≤ 1 µg/mL
same,MIC,Acinetobacter baumannii; A. baumannii strain 26 (susceptible),1 to 8 µg/mL
same,MIC,Acinetobacter baumannii; A. baumannii strain 27 (susceptible),≤ 1 µg/mL
same,MIC,Acinetobacter baumannii; A. baumannii strain 28 (susceptible),≤ 1 µg/mL
same,MIC,Acinetobacter baumannii; A. baumannii strain 29 (susceptible),≤ 1 µg/mL
